Assay results: patent US20050101574A1, “Parathyroid hormone production inhibitors containing vitamin d3 derivatives” (priority 2000, published 2005)
One block for each compound: values may come before it.

Legend:
[1] = tested on: PTH concentration in serum; assay: PTH concentration in serum of vitamin D deficient rats after intravenous administration (radioimmunoassay); format: in vivo, rat; settings: for PTH conc.: mean ± standard error, n = 5
Method: The number of animals were five for one group.
The volume of administered liquid was 2 mL/kg.
(§1) The volume of administered solution was 2 mL/kg.

[2] = tested on: calcium concentration in serum; assay: Calcium concentration in serum of vitamin D deficient rats after intravenous administration (OCPC method); settings: for Calcium conc. in serum: Table 4: vitamin D deficient rats; for Calcium conc. in serum / Calcium conc.: i.v., mean ± standard error, n = 5
Method: (§2) (1) Male Wistar rats of 4 weeks old were purchased from Japan SLC (SLC, Shizuoka prefecture). The rats were put into wire cages three for each cage and bred under the condition of 23±1° C. and 55±10% humidity by allowing the rats to free ingestion of a vitamin D deficient feed for animal breeding (Ca, 0.0036%; P, 0.3%; Harlan Teklad Research Diet, Madison, Wis., U.S.A.) and drinking water (well water treated with 0.4%±0.2 ppm hypochlorite) for 7 weeks. The number of animals were five for one group.
(§3) (2) As shown in the Table 2, the negative control group (Group 1) was administered with a solvent (5% ethanol/0.1% Triton X-100/physiological saline solution) and the positive control group (Group 2) was administered with 0.5 μg/kg of 1α,25-dihydroxyvitamin D3 by intravenous administration.
(§4) (2) As shown in the Table 3, the negative control group (Group 1) was administered with a solvent (5% ethanol/0.1% Triton X-100/physiological saline solution) and the positive control group (Group 2) was administered with 0.25 μg/kg of 1α,25-dihydroxyvitamin D3 by intravenous administration.
(§5) (2) As shown in the Table 4, the negative control group (Group 1) was administered with a solvent (5% ethanol/0.1% Triton X-100/physiological saline solution) and the positive control group (Group 2) was administered with 1α,25-dihydroxyvitamin D3 at a dose of 0.1 μg/kg, 0.5 μg/kg and 2.5 μg/kg by intravenous administration.

[3] = tested on: intestinal calcium absorption; assay: Calcium absorption activity of the intestinal canal (duodenum) of vitamin D deficient rats, inverted gut sac method; format: in vivo, rat; parameters: Intestinal calcium absorption: unit not given here; settings: for Intestinal calcium absorption: Table 4: vitamin D deficient rats, i.v., Time 8 hrs, mean ± standard error, n = 5; for intestinal calcium absorption promoting activity: 8 hours, vitamin D deficient rats
Method: as §1
J. Physiol., vol.216, pp. 1351-1359, 1969.

[4] = tested on: calcium concentration in serum; settings: rat, in vivo
Method: as §2, §3, §4, §5

[5] = intravenous administration at a dose of 0.5 μg/kg, vitamin D deficient rats

Compound: C=C1/C(=C\C=C2/CCC[C@]3(C)[C@@H]([C@H](C)CCCC(C)(C)O)CC[C@@H]23)C[C@@H](O)C[C@@H]1O [1α,25-dihydroxyvitamin D3]
PTH conc. ([1]; Table 3: vitamin D deficient rats, i.v., Administration Rate 0.25, Time 8 hrs): 459 ± 14 pg/ml serum
time after administration of the lowest level of PTH concentration in serum [1, 5]: 24 h
PTH conc. ([1]; vitamin D deficient rats, i.v., Administration Rate 0.5, Time 4 hrs): 458 ± 38 pg/ml serum
PTH conc. ([1]; vitamin D deficient rats, i.v., Administration Rate 0.5, Time 8 hrs): 399 ± 2 pg/ml serum
PTH conc. ([1]; vitamin D deficient rats, i.v., Administration Rate 0.5, Time 24 hrs): 325 ± 31 pg/ml serum
PTH conc. ([1]; vitamin D deficient rats, i.v., Administration Rate 0.5, Time 48 hrs): 488 ± 43 pg/ml serum
PTH conc. ([1]; vitamin D deficient rats, i.v., Administration Rate 0.5, Time 72 hrs): 555 ± 67 pg/ml serum
Calcium conc. in serum ([2]; Administration Rate 0.1 (mg/kg), Time 8 hrs): 5.30 ± 0.10 mg/100 ml serum
Calcium conc. in serum ([2]; Administration Rate 0.5 (mg/kg), Time 8 hrs): 5.90 ± 0.40 mg/100 ml serum
Calcium conc. in serum ([2]; Administration Rate 2.5 (mg/kg), Time 8 hrs): 6.17 ± 0.07 mg/100 ml serum
time after administration of the maximum level of calcium concentration in serum [2, 5]: 8 h
Calcium conc. ([2]; vitamin D deficient rats, Administration Rate 0.5 (mg/kg), Time 4 hrs): 5.33 ± 0.09 mg/100 ml serum
Calcium conc. ([2]; vitamin D deficient rats, Administration Rate 0.5 (mg/kg), Time 8 hrs): 6.00 ± 0.17 mg/100 ml serum
Calcium conc. ([2]; vitamin D deficient rats, Administration Rate 0.5 (mg/kg), Time 24 hrs): 5.87 ± 0.22 mg/100 ml serum
Calcium conc. ([2]; vitamin D deficient rats, Administration Rate 0.5 (mg/kg), Time 48 hrs): 5.48 ± 0.15 mg/100 ml serum
Calcium conc. ([2]; vitamin D deficient rats, Administration Rate 0.5 (mg/kg), Time 72 hrs): 5.10 ± 0.18 mg/100 ml serum

calcium metabolism activity [4]: absolutely unobservable
Compound: C=C1CC(CC(C)C2CCC3C(=CC=C4CC(O)CC(O)C4=C)CCCC32C)OC1=O [Compound 11 (23S isomer), (23S)-25-dehydro-1α,25-dihydroxyvitamin D3-26,23-lactone]
PTH conc. ([1]; Table 2: vitamin D deficient rats, i.v., Administration Rate 50, Time 4 hrs): 354 ± 65 pg/ml serum
PTH conc. ([1]; Table 2: vitamin D deficient rats, i.v., Administration Rate 50, Time 8 hrs): 330 ± 72 pg/ml serum
PTH conc. ([1]; Table 2: vitamin D deficient rats, i.v., Administration Rate 50, Time 24 hrs): 319 ± 1 pg/ml serum
PTH conc. ([1]; Table 2: vitamin D deficient rats, i.v., Administration Rate 50, Time 48 hrs): 436 ± 51 pg/ml serum
PTH conc. ([1]; Table 2: vitamin D deficient rats, i.v., Administration Rate 50, Time 72 hrs): 528 ± 38 pg/ml serum
PTH conc. ([1]; Table 3: vitamin D deficient rats, i.v., Administration Rate 2, Time 8 hrs): 488 ± 47 pg/ml serum
PTH conc. ([1]; Table 3: vitamin D deficient rats, i.v., Administration Rate 10, Time 8 hrs): 385 ± 65 pg/ml serum
PTH conc. ([1]; Table 3: vitamin D deficient rats, i.v., Administration Rate 50, Time 8 hrs): 319 ± 56 pg/ml serum
PTH concentration in serum ([1]; intravenous administration at a dose of 10 μg/kg, vitamin D deficient rats (Example 1)): significantly lowered
time after administration of the lowest level of PTH concentration in serum ([1]; intravenous administration at a dose of 50 μg/kg, vitamin D deficient rats): 24 h
serum PTH concentration lowering action relative to the action of 1α,25-dihydroxyvitamin D3 ([1]; ratio to 1α,25-dihydroxyvitamin D3, vitamin D deficient rats, i.v., 8 hours): 1/12
effect on PTH concentration in serum versus serum calcium concentration (conclusion in words) ([1]; vitamin D deficient rats, Examples 1, 2 and 3): effective for lowering the PTH concentration in serum without changing the calcium concentration in serum
Intestinal calcium absorption ([3]; Administration Rate 10 (mg/kg)): 1.89 ± 0.04
Intestinal calcium absorption ([3]; Administration Rate 50 (mg/kg)): 2.32 ± 0.21
Intestinal calcium absorption ([3]; Administration Rate 250 (mg/kg)): 2.53 ± 0.10
intestinal calcium absorption promoting activity ([3]; administration dose of from 50 μg/kg to 250 μg/kg i.v.): weak
intestinal calcium absorption promoting activity ([3]; dose of 10 μg/kg i.v.): absolutely unobservable
